Measurements taken from ChEMBL document CHEMBL1201862, “PubChem BioAssay data set” (2004).
Activity calls are given as the source filed them.

What was measured:
[1] = biological target: Mothers against decapentaplegic homolog 3 (Homo sapiens, UniProt P84022); experiment: Smad3 binding inhibitors, lysate ELISA, dose response, cell lysate, secondary confirmation, chemiluminescent ELISA, HEK293 lysate (AID 1058); type: functional
[2] = biological target: Scavenger receptor class B member 1 (Mus musculus, UniProt Q61009); experiment: inhibitors of SR-BI mediated HDL lipid uptake, dose response, ldlA[mSR-BI] cells, fluorescence, cherry pick (AID 493194); type: functional, cell-based;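 note: cellular uptake of fluorescent DiI-labeled HDL measured as cell fluorescence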
[3] = biological target: G2/mitotic-specific cyclin-B1 (Homo sapiens, UniProt P14635); experiment: Counterscreen assay for inhibitors of Wee1 degradation: dose response cell-based assay to identify inhibitors of cyclin B degradation. [Related pubchem assays: 1410, 1321 ]; type: functional
[4] = biological target: E3 ubiquitin-protein ligase Mdm2 (Homo sapiens, UniProt Q00987); experiment: enhancers of MDM2-luciferase reporter signal, concentration-effect titration, project on inhibitors of MDM2 ubiquitin ligase, cellular assay, luminescent readout, 384-well plate format (AID 1394); type: functional;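 note: MDM2 E3 inhibitors raise luminescence so EC50 is for signal enhancement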
[5] = biological target: Sphingosine 1-phosphate receptor 2 (Homo sapiens, UniProt O95136); experiment: Dose Response Cell Based Assay for Antagonists of the S1P2 Receptor. [Related pubchem assays: 856, 736 ]; type: functional
[6] = system: HeLa; experiment: Cytotoxicity counterscreen assay for transcriptional activators of heat shock protein 70 (Hsp70). [Related pubchem assays: 1203, 1252 ]; type: functional; details: Homo sapiens;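 note: cells exposed to compound for 16 hours before readout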
[7] = biological target: Wee1-like protein kinase (Homo sapiens, UniProt P30291); experiment: Dose Response Cell-based Assay for Inhibitors of Wee1 Degradation. [Related pubchem assays: 1410, 1321 ]; type: functional
[8] = biological target: T1, Beta-galactosidase (Escherichia coli, UniProt Q8VNN2); experiment: PubChem AID 485352; type: functional
[9] = biological target: Luciferin 4-monooxygenase (Photinus pyralis, UniProt P08659); experiment: firefly luciferase enzyme inhibitors, dose response, biochemical, luminescence (AID 1891)
[10] = Luminescence Cell-Based Dose Confirmation HTS to Identify Inhibitors of Platelet Dense Granule Release. [Related pubchem assays: 1663 (Primary HTS), 1678 (Summary of Project)]; type: functional
[11] = microbe, parasite or virus in culture; type: functional; details: Mycobacterium tuberculosis
[12] = Luminescence-based dose response cell-based high throughput screening assay for cytotoxic compounds using the IEC-6 intestinal epithelial cell line. [Related pubchem assays: 1858 (Summary AID.), 1825 (Counterscreen.), 1907 (Confirmation screen.)]; type: functional
[13] = biological target: T2, Type-1 angiotensin II receptor (Homo sapiens, UniProt P30556); experiment: AT1 receptor antagonists, dose response, selectivity assay for APJ receptor antagonist project, cell-based, uHTS hits (AID 463214); type: functional;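 note: antagonist potency against angiotensin II stimulated AT1 response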
T2 sequence (P30556 whole entry): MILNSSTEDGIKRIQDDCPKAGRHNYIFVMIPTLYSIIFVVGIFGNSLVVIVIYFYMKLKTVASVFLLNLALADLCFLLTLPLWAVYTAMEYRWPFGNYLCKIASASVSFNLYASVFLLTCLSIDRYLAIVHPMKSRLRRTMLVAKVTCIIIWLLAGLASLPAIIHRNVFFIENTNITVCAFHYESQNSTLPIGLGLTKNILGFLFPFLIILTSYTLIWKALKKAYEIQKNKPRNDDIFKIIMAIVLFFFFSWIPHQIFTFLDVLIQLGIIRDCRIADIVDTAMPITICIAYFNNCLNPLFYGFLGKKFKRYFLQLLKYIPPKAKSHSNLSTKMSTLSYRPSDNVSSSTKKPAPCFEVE

[14] = biological target: T3, Kappa-type opioid receptor (Homo sapiens, UniProt P41145); type: functional
[15] = biological target: T1, Beta-galactosidase; type: functional
[16] = biological target: Sphingosine 1-phosphate receptor 4 (Homo sapiens, UniProt O95977); experiment: Fluorescence dose response cell-based high throughput screening assay for antagonists of the Sphingosine 1-Phosphate Receptor 4 (S1P4). [Related pubchem assays: 1524 (Confirmation in triplicates.), 1510 (Primary screen.)]; type: functional
[17] = biological target: T3, Kappa-type opioid receptor; type: functional; remark: listed apart in the source
[18] = biological target: Sphingosine 1-phosphate receptor 1 (Homo sapiens, UniProt P21453); type: functional;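 note: Tango beta-arrestin reporter U2OS cells stimulated with S1P near its EC80; inhibitor potency meaning antagonism of receptor activation by the natural agonist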
[19] = cytotoxicity in HEK-293T cells, dose response, cytotoxicity control for TCR NF-kB inhibitor project, luminescence, T-cell screen hits (AID 489026); type: functional, cell-based;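 note: cells exposed to compound about 14 hours before the viability readout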
[20] = system: INS1; experiment: beta cell apoptosis inhibitors, cytokine rescue, dose response, luminescence, retest (AID 449756); type: functional, cell-based; details: Rattus norvegicus;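 note: cell death triggered by IL-1 beta plus TNF-alpha plus IFN-gamma mixture; protective hits raise ATP signal compared with cytokine alone wells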
[21] = biological target: Guanyl-specific ribonuclease T1 (Aspergillus oryzae (strain ATCC 42149 / RIB 40), UniProt P00651); experiment: RNase T1 inhibitors, dose response, counter-screen for TPT1 inhibitor project, biochemical, fluorescence polarization, 1536-well (AID 2167)
[22] = biological target: T4, SUMO-activating enzyme (Homo sapiens, UniProt Q9UBT2); experiment: SUMOylation inhibitor hit validation, confirmation, SUMOylation inhibitor project, biochemical, AlphaScreen (AID 2018); type: functional
[23] = biological target: T4, SUMO-activating enzyme; experiment: inhibitors of in vitro SUMOylation cascade, primary screen, biochemical, HTRF, uHTS (AID 2006); type: protein-complex assay
[24] = biological target: Likely tRNA 2'-phosphotransferase (Candida albicans (strain SC5314 / ATCC MYA-2876) (Yeast), UniProt Q5A7N4); experiment: TPT1 tRNA phosphotransferase inhibitors, dose response, biochemical, fluorescence polarization (AID 2160)
[25] = inhibition of ADP-Glo detection reagents, dose response, artefact control for CDK5 inhibitor project, biochemical, luminescence, cherry-picked samples, set 2 (AID 504546); type: functional
[26] = biological target: Lysosomal acid glucosylceramidase (Homo sapiens, UniProt P04062); experiment: Dose response cell-based high throughput screening assay to identify enhancers of beta-glucosidase activity. [Related pubchem assays: 784 ]; type: functional
[27] = biological target: T5, Interleukin-8 (Homo sapiens, UniProt P10145); experiment: SAR analysis of tumor necrosis factor alpha (TNF-alpha) induced IL-8 secretion in MCF-7/NOD1 cells. [Related pubchem assays (depositor defined):AID1575, AID2250, AID2260]; type: functional, cell-based
T5 sequence (P10145 whole entry): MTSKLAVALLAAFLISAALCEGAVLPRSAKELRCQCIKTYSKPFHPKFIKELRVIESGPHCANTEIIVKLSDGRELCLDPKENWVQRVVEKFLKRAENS

[28] = biological target: Protein Rev (Human immunodeficiency virus type 1 group M subtype B (isolate WMJ22)(HIV-1), UniProt P05866); experiment: HIV-1 Rev-RRE RNA binding disruptors, dose response, biochemical, protein-RNA interaction (AID 842); design: species or system Human immunodeficiency virus 1
[29] = biological target: Tumor necrosis factor (Homo sapiens, UniProt P01375); experiment: TNFa-triggered NF-kB activation inhibitors, SAR follow-up, cell-based, revised (AID 2337); type: functional
[30] = biological target: T6, Nucleotide-binding oligomerization domain-containing protein 1 (Homo sapiens, UniProt Q9Y239); experiment: NOD1 signaling inhibitors, SAR follow-up, revised (AID 2333); type: functional
T6 sequence (Q9Y239 whole entry): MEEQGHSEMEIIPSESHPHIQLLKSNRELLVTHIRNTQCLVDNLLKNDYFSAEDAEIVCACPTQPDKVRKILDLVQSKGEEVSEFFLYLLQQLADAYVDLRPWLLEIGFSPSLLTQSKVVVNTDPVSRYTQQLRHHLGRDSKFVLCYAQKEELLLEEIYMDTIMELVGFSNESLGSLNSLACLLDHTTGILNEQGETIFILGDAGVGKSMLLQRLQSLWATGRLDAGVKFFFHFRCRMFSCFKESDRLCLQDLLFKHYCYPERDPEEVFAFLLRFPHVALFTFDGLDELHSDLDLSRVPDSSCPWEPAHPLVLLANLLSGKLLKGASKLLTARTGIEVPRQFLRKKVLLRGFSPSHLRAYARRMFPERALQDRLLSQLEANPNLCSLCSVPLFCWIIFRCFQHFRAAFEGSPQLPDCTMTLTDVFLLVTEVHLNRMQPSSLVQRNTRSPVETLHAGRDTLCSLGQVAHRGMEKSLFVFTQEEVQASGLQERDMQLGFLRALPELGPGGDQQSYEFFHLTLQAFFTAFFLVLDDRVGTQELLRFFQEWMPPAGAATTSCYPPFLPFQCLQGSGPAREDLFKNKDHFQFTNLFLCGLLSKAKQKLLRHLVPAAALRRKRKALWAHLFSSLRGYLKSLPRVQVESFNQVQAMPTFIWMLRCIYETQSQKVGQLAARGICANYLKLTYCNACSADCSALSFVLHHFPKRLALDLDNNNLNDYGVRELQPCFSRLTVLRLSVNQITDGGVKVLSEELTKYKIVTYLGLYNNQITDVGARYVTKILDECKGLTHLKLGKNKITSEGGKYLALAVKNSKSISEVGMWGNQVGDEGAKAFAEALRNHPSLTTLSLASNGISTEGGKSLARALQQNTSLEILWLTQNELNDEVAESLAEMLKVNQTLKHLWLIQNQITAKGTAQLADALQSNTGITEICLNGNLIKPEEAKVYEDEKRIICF

[31] = biological target: Nucleotide-binding oligomerization domain-containing protein 2 (Homo sapiens, UniProt Q9HC29); experiment: PubChem AID 2334; type: functional
[32] = system: HEK293; experiment: cells; details: Homo sapiens;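 note: cells exposed to compound for 14 hours overnight before viability readout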
[33] = system: Staphylococcus aureus; experiment: Inhibitors of Bacterial Quorum Sensing Structure Activity Relationship (SAR) Analysis: Dose Response Assay. [Related pubchem assays: 700, 527 ]; type: functional, organism-based
[34] = biological target: Cytochrome P450 2C19 (Homo sapiens, UniProt P33261); experiment: qHTS Assay for Inhibitors and Substrates of Cytochrome P450 2C19. [Related pubchem assays: 410 ]; type: ADME; details: read-out: Potency
[35] = inhibitors of HIV Env-driven cell fusion, dose response, cherry-pick (AID 652057); type: functional, cell-based
[36] = CEM21 lymphoblast cell cytotoxicity, dose response, cytotoxicity control for viral fusion inhibitor project, CellTiter-Glo luminescence, cherry-picked (AID 652042); type: functional, cell-based;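 note: potency for signal decrease meaning cytotoxicity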
[37] = ZM109 Env clade C HIV-1 fusion inhibitors, dose response, HeLa effector, CEM target cells, luciferase, cherry-pick (AID 652058); type: functional, cell-based
[38] = off-target signal loss in HeLa-CEM21 co-culture – HeLa F-luc CTL cells, cherry-picked, counter-screen for HIV-1 Env fusion inhibitor project, dose response (AID 652040); type: functional, cell-based;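 note: potency for signal decrease marking cytotoxic or nonspecific inhibition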
[39] = inhibitors of clade B AD8 Env fusion, dose response, cell-based, cherry-pick (AID 652062); type: functional;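 note: luciferase signal from cell-cell fusion driven by HIV-1 clade B AD8 Env; potency is for inhibitors of fusion seen as a drop in luminescence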
[40] = biological target: Cytochrome P450 2C9 (Homo sapiens, UniProt P11712); details: Potency
Cytochrome P450 2C9, sequence (P11712 whole entry): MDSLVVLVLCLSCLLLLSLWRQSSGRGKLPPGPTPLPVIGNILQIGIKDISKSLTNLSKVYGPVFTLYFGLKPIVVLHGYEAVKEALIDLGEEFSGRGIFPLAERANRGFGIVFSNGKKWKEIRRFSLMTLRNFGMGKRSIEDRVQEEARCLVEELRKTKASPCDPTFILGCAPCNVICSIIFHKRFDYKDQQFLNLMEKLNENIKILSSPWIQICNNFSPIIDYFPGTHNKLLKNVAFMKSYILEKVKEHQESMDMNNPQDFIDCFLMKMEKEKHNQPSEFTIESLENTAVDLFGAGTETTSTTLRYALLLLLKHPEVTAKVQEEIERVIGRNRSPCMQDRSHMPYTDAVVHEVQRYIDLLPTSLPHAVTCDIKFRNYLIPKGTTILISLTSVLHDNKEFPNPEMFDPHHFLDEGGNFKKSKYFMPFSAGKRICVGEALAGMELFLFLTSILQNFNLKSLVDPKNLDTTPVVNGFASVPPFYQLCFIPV

T3 sequence (P41145 whole entry): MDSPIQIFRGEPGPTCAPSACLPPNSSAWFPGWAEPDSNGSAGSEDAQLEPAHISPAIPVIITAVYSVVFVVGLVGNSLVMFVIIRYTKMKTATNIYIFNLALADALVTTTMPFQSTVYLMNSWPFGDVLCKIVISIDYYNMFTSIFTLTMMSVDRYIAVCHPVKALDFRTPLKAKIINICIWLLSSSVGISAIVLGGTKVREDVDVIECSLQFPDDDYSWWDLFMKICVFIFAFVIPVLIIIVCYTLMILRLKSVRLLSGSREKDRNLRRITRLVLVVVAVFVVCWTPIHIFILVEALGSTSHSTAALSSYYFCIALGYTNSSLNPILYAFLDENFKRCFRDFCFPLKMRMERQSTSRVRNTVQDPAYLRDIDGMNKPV
T4 sequence (Q9UBE0 whole entry): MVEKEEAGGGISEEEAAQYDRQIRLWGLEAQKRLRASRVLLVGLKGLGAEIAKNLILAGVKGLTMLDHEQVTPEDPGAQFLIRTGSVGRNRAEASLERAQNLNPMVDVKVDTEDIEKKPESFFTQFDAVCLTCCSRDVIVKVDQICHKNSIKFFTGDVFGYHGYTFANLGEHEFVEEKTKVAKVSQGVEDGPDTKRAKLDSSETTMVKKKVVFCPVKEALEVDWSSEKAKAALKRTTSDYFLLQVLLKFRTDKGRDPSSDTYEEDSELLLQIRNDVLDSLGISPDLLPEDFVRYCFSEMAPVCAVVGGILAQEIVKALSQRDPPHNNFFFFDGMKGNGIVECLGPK
T4 sequence (Q9UBT2 whole entry): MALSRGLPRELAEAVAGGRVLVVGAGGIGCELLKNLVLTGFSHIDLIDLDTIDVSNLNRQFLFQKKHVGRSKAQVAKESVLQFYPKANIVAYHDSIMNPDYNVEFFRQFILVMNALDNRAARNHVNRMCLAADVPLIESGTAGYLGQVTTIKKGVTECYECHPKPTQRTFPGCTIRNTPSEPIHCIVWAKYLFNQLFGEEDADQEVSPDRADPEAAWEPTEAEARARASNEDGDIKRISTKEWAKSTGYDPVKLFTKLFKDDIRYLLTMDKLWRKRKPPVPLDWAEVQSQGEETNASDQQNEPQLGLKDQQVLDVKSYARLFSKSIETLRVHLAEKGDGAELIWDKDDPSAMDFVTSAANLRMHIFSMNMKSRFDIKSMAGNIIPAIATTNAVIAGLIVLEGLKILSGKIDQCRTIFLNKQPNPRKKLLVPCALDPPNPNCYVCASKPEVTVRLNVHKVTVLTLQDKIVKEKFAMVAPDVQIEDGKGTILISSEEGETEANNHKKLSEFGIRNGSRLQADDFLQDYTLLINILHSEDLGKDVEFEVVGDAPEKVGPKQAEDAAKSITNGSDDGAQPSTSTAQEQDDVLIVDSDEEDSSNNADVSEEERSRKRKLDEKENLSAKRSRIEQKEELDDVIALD
T1 sequence (Q8VNN2 whole entry): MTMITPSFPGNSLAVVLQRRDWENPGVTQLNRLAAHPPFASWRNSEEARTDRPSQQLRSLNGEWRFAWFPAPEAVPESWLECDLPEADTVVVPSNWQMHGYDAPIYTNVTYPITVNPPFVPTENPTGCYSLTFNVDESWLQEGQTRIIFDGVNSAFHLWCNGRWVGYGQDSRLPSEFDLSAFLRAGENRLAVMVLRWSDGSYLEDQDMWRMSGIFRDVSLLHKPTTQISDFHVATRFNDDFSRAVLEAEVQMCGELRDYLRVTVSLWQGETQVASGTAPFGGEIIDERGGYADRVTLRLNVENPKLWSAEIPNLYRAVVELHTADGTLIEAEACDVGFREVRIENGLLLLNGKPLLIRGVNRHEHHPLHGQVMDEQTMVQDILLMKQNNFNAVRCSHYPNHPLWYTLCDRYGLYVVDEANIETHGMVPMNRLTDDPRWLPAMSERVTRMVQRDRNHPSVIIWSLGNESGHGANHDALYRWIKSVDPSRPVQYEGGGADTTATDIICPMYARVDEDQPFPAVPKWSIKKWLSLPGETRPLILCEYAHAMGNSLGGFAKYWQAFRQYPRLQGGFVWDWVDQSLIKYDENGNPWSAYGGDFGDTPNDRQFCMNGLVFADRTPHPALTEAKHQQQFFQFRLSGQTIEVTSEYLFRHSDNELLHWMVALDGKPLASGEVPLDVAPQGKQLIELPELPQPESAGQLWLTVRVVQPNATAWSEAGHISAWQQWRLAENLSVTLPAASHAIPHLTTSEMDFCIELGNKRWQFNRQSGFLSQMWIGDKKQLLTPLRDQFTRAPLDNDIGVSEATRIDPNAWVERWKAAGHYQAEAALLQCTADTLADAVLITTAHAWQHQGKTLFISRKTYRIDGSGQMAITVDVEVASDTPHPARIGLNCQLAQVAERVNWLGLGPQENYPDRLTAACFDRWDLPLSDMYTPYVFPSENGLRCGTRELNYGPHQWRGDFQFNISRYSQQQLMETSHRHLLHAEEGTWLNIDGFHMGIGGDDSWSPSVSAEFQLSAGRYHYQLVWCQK
Wee1-like protein kinase, sequence (P30291 whole entry): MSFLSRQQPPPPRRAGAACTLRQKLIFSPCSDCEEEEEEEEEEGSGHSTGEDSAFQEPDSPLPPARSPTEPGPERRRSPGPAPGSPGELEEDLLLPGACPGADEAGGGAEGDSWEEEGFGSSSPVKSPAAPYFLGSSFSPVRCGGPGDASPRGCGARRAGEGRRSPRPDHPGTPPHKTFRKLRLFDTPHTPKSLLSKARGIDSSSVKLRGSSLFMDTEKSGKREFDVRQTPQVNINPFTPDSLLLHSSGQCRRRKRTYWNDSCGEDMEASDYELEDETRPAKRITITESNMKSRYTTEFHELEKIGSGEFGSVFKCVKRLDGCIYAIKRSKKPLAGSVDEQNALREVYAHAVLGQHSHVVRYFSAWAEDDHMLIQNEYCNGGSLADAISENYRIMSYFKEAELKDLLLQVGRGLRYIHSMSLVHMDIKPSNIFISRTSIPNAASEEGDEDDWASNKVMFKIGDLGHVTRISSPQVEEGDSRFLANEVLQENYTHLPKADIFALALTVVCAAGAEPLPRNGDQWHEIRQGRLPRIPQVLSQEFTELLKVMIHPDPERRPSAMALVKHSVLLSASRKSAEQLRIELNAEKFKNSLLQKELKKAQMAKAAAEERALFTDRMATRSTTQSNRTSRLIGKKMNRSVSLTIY
Lysosomal acid glucosylceramidase, sequence (P04062 whole entry): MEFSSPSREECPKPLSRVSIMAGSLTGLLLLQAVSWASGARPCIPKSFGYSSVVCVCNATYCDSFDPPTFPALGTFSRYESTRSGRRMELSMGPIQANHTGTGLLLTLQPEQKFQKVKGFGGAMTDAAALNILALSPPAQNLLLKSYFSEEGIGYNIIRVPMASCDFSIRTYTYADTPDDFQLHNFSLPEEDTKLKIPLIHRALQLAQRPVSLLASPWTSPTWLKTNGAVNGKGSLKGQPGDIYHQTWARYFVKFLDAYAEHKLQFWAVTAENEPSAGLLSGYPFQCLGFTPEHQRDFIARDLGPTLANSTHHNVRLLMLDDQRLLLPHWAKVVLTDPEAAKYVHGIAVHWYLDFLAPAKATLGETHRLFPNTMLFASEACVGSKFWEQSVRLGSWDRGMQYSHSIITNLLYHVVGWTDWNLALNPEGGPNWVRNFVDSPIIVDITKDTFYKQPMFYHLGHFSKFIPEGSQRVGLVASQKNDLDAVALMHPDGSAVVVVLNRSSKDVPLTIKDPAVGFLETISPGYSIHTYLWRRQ
Luciferin 4-monooxygenase, sequence (P08659 whole entry): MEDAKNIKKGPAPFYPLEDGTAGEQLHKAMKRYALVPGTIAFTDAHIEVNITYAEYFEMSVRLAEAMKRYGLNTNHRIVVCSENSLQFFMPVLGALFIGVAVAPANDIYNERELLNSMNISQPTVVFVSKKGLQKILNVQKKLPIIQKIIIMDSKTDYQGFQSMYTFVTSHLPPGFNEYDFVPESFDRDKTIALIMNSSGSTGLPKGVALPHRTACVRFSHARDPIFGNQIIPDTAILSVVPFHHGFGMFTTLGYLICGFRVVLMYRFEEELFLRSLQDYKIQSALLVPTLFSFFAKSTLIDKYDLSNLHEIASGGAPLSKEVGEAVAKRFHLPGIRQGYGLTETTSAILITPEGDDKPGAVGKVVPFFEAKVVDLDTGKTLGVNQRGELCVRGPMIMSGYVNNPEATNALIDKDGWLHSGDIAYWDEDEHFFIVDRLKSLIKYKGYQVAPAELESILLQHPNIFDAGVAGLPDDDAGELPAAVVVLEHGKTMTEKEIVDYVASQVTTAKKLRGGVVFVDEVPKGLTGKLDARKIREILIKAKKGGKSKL
Sphingosine 1-phosphate receptor 1, sequence (P21453 whole entry): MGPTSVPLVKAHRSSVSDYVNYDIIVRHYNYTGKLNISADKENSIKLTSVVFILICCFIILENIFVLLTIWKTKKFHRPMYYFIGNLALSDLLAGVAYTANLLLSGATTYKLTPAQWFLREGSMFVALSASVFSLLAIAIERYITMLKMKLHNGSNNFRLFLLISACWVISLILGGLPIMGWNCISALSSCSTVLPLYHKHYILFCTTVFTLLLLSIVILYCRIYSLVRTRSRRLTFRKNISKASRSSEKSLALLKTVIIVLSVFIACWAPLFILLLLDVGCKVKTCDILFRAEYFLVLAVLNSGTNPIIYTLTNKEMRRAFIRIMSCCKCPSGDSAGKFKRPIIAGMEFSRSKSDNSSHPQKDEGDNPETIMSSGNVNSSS

For `COc1ccc(C(c2cc3c(cc2O)OCO3)N2CCOCC2)cc1` (stereo unspecified), the IC50 [1] was 6.51 µM (not active).

With `CC(=O)c1c(C(C)=O)c(C)n(-c2ccc(C)c(NC(=O)c3ccccc3Cl)c2)c1C` the AC50 [2] was 0.043 µM (active).

For `COc1ccc(NC(=O)/C(Cl)=C(/Cl)[S+]([O-])Cc2ccc(C)cc2)cn1` (stereo unspecified), the EC50 [3] was > 49.7 µM (not active), the EC50 [4] was 0.96 µM (active) and the IC50 [5] was 0.967 µM (active). The CC50 [6] was 1.12 µM (active), the EC50 [7] was > 49.7 µM (not active) and the EC50 [8] was > 40 µM (inactive). The EC50 [9] was > 112 µM (not active), the EC50 [10] was 5.74 µM (active) and the CC50 [11] was 2.13 µM (active). For the same molecule, the IC50 [12] was 0.879 µM (active), the IC50 [13] was 2.26 µM (active) and the IC50 [14] was 3.76 µM (active). For the same molecule, the EC50 [15] was > 31.5 µM (inactive), the IC50 [16] was 0.396 µM (active) and the IC50 [17] was 4.71 µM. The IC50 [18] was 4.46 µM (active), the IC50 [19] was 29.8 µM (inactive) and the AC50 [20] was 0.855 µM (active).

For `COc1cc(/C=C2\SC(=O)N(CC(=O)Nc3ccccc3F)C2=O)cc(Cl)c1O`, the IC50 [21] was 0.238 µM (active), the IC50 [22] was 22.1 µM (active) and the IC50 [23] was 15.6 µM (active). The IC50 [24] was 0.275 µM (active).

In the case of `COc1cccc(C(=O)O/N=C(\N)c2ccccn2)c1`, the EC50 [10] is reported as 3.65 µM (active) and the AC50 [25] is reported as 26.7 µM (active).

In the case of `CN(CC(=O)Nc1ccc(F)c(F)c1)S(=O)(=O)c1cccc2nsnc12`, the EC50 [26] is reported as > 50 µM (not active).

In the case of `Nc1nc2ccccc2n1S(=O)(=O)c1ccc(Cl)cc1`, the IC50 [27] is reported as > 5 µM (inactive).

With `COC(=O)c1c(C(=O)OC)n(CCCN)c2ccc(C)cc12` the IC50 [28] was > 79.4 µM (not active).

For `CN(C)c1ccc(C(=O)Nc2nc3ccccc3n2Cc2ccc(Cl)cc2)cc1`, the IC50 [29] was > 20 µM (inactive), the IC50 [30] was > 20 µM (inactive) and the IC50 [31] was > 20 µM (inactive). For the same molecule, the IC50 [32] was > 20 µM (inactive).

With `O=C(O)Cc1ccccc1Nc1c(Cl)cccc1Cl` [DICLOFENAC] the IC50 [33] was 0.943 µM (active).

For `COc1ccc2[nH]c(=O)c3c(c2c1)OC(C)(C)C=C3` [HAPLAMINE], the AC50 [34] was 7.94 µM (inconclusive), the AC50 [35] was 5.53 µM (active) and the AC50 [36] was 14.8 µM (active). The AC50 [37] was 5.32 µM (active), the AC50 [38] was 10.4 µM (active) and the AC50 [39] was 3.86 µM (active). The AC50 [40] was 25.1 µM (inconclusive).
